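Five concentrations, 48 hours, 96-well plates. TGI is the concentration that stops growth completely.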
How the values were obtained:
Test in all cases: NCI anticancer screen, dose series, 48 h
SK-MEL-5 melanoma = tested on: SK-MEL-5 melanoma
DU-145 prostate = tested on: DU-145 prostate
PC-3 prostate = tested on: PC-3 prostate
OVCAR-5 ovarian = tested on: OVCAR-5 ovarian
SF-295 CNS = tested on: SF-295 CNS
EKVX NSCLC = tested on: EKVX NSCLC
SNB-19 CNS = tested on: SNB-19 CNS
HCT-116 colon = tested on: HCT-116 colon
LOX IMVI melanoma = tested on: LOX IMVI melanoma
NCI-H460 lung = tested on: NCI-H460 lung
HL-60(TB) leukemia = tested on: HL-60(TB) leukemia
UO-31 renal = tested on: UO-31 renal
HOP-92 NSCLC = tested on: HOP-92 NSCLC
786-0 renal = tested on: 786-0 renal
SF-268 CNS = tested on: SF-268 CNS
HT29 colon = tested on: HT29 colon
HS 578T breast = tested on: HS 578T breast
RPMI-8226 leukemia = tested on: RPMI-8226 leukemia
CCRF-CEM leukemia = tested on: CCRF-CEM leukemia

Compound | TGI (SK-MEL-5 melanoma) [µM] | TGI (DU-145 prostate) [µM] | TGI (PC-3 prostate) [µM] | TGI (OVCAR-5 ovarian) [µM] | TGI (SF-295 CNS) [µM] | TGI (EKVX NSCLC) [µM] | TGI (SNB-19 CNS) [µM] | TGI (HCT-116 colon) [µM] | TGI (LOX IMVI melanoma) [µM] | TGI (NCI-H460 lung) [µM] | TGI (HL-60(TB) leukemia) [µM] | TGI (UO-31 renal) [µM] | TGI (HOP-92 NSCLC) [µM] | TGI (786-0 renal) [µM] | TGI (SF-268 CNS) [µM] | TGI (HT29 colon) [µM] | TGI (HS 578T breast) [µM] | TGI (RPMI-8226 leukemia) [µM] | TGI (CCRF-CEM leukemia) [µM]
NC(N)=NS(=O)(=O)c1ccc(Nc2c3ccccc3nc3ccc(C(=O)Nc4ccc(S(N)(=O)=O)cc4)cc23)cc1 | > 100 | > 100 | > 100 | > 100 | > 100 | > 100 | > 100 | > 100 | > 100 | > 100 | > 100 | > 100 | > 100 | > 100 | > 100 | > 100 | > 100 | > 100 | > 100
OCC1C(O)C(O)[C@@H]2SCCN12 (stereo partly specified) | > 100 | > 100 | > 100 | > 100 | > 100 | > 100 | > 100 | > 100 | > 100 | > 100 | > 100 | > 100 | > 100 | > 100 | > 100 | > 100 | > 100 | > 100 | > 100
CC(=O)Oc1ccn2nc(C)c(Cc3c(C)nn4ccc(OC(C)=O)cc34)c2c1 | > 100 | > 100 | > 10 | > 100 | 68.8 | > 100 | > 100 | > 100 | > 100 | > 100 | > 100 |  | > 100 | > 100 | > 100 | > 100 | > 100 |  | 76.6
COc1cc(/C=C2/C[C@H]3[C@@H]4CCC5=CC(=O)CC[C@]5(C)[C@H]4CC[C@]3(C)NC2=O)cc(OC)c1OC | 52.4 | > 100 | > 100 | 57.7 | 77.7 | > 100 | > 100 | > 100 |  | > 100 | 45.3 | 26.8 | 39.6 | > 100 | > 100 | > 100 | 73.9 | > 100 | 64.4
CCN(CC)C(=O)C1=C(C)NC(C)=C(C(=O)N(CC)CC)C1 | > 100 | > 100 | > 100 | > 100 | > 100 | > 100 | > 100 | > 100 | > 100 | > 100 | > 100 | > 100 | > 100 | > 100 | > 100 |  | > 100 | > 100 | > 100
CN(C)c1ccc(/C=C2\C[C@H]3[C@@H]4CCC5=CC(=O)CC[C@]5(C)[C@H]4CC[C@]3(C)C2=O)cc1 | 32.3 | > 100 | 66.8 | > 100 | > 100 | > 100 | > 100 | > 100 | 41.7 | 51.1 | > 100 | > 100 | 66.1 | > 100 | > 100 | > 100 | > 100 | > 100 | 
CCOP(=O)(OCC)/C(=C/c1ccccc1)CC(C)=O | > 100 | > 100 | > 100 | > 100 | > 100 | > 100 | > 100 | > 100 | > 100 | > 100 | 68.7 | > 100 | > 100 | > 100 | > 100 | > 100 | > 100 |  | > 100
Brc1ccc(-c2ccc(-c3ccc(-c4ccc(Br)s4)s3)s2)s1 | > 100 | > 100 | > 100 | > 100 | > 100 | > 100 |  | > 100 | > 100 | > 100 | > 100 | > 100 | > 100 | > 100 | > 100 | > 100 | > 100 | > 100 | > 100
CC(C)(C)C1CCC2c3c([nH]c4ccccc34)C3C(=O)N(c4cccc(Cl)c4)C(=O)C3C2C1 (stereo unspecified) | 26.3 | 33.2 | 36.9 | 30.3 | 44.7 | 43.7 | > 100 | 19.3 | 20.8 | 17.7 | 13 | 15.1 | 18.9 | 22 | 32.4 | 20 | > 68.1 | > 72.2 | > 91.8
CSc1sc(C)cc1-c1nsc(=O)o1 | > 100 | > 100 | > 100 | > 100 | > 100 | > 100 | > 100 | > 100 | > 100 | > 100 | > 100 | > 100 | > 100 | > 100 | > 100 | > 100 | > 100 | > 100 | > 100
C/C(Sc1ccccc1)=C1/CCCN(Cc2ccccc2)C1 | 28.6 | > 100 | 59.9 | 67.5 | 50.9 | > 100 | > 100 |  | 31.8 | 96.1 | 32.6 | 40.9 | 51.9 | 50.3 | > 100 | > 100 | 41.4 | 43.3 | 46.4
CCOC(=O)C(Cc1ccc(OC(=O)c2ccc(OC)cc2OC)cc1)NC(=O)C(F)(F)F (stereo unspecified) | > 100 | 34.4 | 48.1 | > 100 | 91.5 | 49.6 | > 100 | > 100 | 36 | > 100 | 51.1 | 34.5 | 55.1 | 93.6 | > 100 | 47.1 | 83.5 | 50.7 | 83.8
COc1cccc2c3cccc(OC)c3c3[nH]cnc3c12 |  | 2.78 | 4.6 | 10 | 9.51 | 27.9 | 26.9 | 3.1 | 3.52 | 3.26 | 2.38 | 3.02 | 24 | 2.98 | 9.26 | 3 | 20.5 | 5.67 | 3.4
C[C@@]12C[C@@H](c3ccccc3O1)N1CCSC1=N2 | > 100 | > 100 | > 100 | > 100 | > 100 | > 100 | > 100 | > 100 | > 100 | > 100 | > 100 | > 100 | > 100 | > 100 | > 100 | > 100 | > 100 | > 100 | 
Cc1cc(C)c2c(=O)n(CN3CCN(c4ccccc4)CC3)sc2n1 | > 100 | 63.3 | 40.5 | 49.2 | > 100 | 70.1 | > 100 | 35.1 | 44.1 | > 100 | 41.5 | 40.7 | > 100 | 31.4 | > 100 | 34.6 | > 100 |  | > 100
CC(=O)O[C@@]12[C@@H]3O[C@@]4(O)C[C@]5(C)[C@H]6C[C@@](C(C)C)(O[C@H]5c5ccoc5)O[C@H]1[C@]6(C4)O[C@]2(O)C(C)=CC3(C)C | > 100 | > 100 | > 100 | > 100 | > 100 | > 100 | > 100 | > 100 | > 100 |  | > 100 | > 100 | > 100 | > 100 | > 100 | > 100 | > 100 | > 100 | > 100
NC(=S)SC1=NNC2(C(=O)N1)c1ccccc1-c1ccccc12 | > 10 | > 10 | > 10 |  | > 10 | > 10 | > 10 | > 10 | > 10 | > 10 | > 10 | > 10 | > 10 | > 10 | > 10 | > 10 | > 10 | > 10 | > 10
CSc1c(C#N)c(O)n(-c2ccc(Cl)cc2)c(=O)c1C#N | > 100 | > 100 | > 100 | > 100 |  | > 100 | > 100 | > 100 | > 100 | > 100 | > 100 | > 100 | 98 | > 100 | > 100 | > 100 | > 100 | > 100 | 
CCOC(=O)N/N=C/C1=NN(C(=O)OCC)S(=O)C1C (stereo unspecified) | > 100 | > 100 | > 100 | > 100 | > 100 | > 100 | > 100 | > 100 |  | > 100 | > 100 | > 100 | > 100 | > 100 | > 100 | > 100 | > 100 | > 100 | > 100
COc1cc(O)c2c(=O)c3ccccc3n(C)c2c1 | > 100 | > 100 | > 100 | > 100 | > 100 | > 100 |  | > 100 | > 100 | > 100 | > 100 | > 100 | > 100 | > 100 | > 100 | > 100 | 59.2 |  | > 100
O=[N+]([O-])c1nccn1CCCN=c1c2ccccc2n(O)c2ccccc12 | > 100 | > 100 | > 100 | > 100 | > 100 | > 100 |  | > 100 | > 100 | > 100 | > 100 | > 100 | > 100 | > 100 | > 100 | > 100 | > 100 | > 100 | > 100
CCOC(=O)CCC(NC(=O)N1CCN(c2c(C)nc(C)[nH]c2=O)CC1)C(=O)OCC (stereo unspecified) |  | > 100 | > 100 | > 100 | > 100 | > 100 | > 100 | > 100 | > 100 | > 100 | > 100 | > 100 | > 100 | > 100 | > 100 | > 100 | > 100 | > 100 | > 100
CCOC(=O)c1c(NS(=O)(=O)c2ccc(Br)cc2)sc2c1CCCC2 | 18.2 | > 58 | 11.5 | 18.3 | 8.39 | 11 | 20.6 | 21.1 | 27.3 | 13.9 | > 100 | 15.7 |  | 29.4 | 10.9 | 10.1 | 35.5 | 30.5 | > 100
O=C(c1ccsc1)c1cc2c(s1)C(=O)c1ccsc1C2=O | 0.104 | 0.296 | 0.933 | 1.01 | 0.324 | 0.373 | 0.354 | 0.468 |  | 0.367 | > 100 | 0.25 | 1.25 | 0.356 | 0.405 | 4.08 | 0.549 |  | > 100
N#Cc1cc2c(n(C3OC(CO)C(O)C(O)C3O)c1=S)CCCCC2 (stereo unspecified) | > 100 | > 100 | > 100 | > 100 | > 100 |  | > 100 | > 100 | > 100 | > 100 | > 100 | > 100 | > 100 | > 100 | > 100 | > 100 | > 100 | > 100 | > 100
